Data: US9695155B2, “Herbicidal substituted pyrimidinyloxy benzene compounds” (E. I. DU PONT DE NEMOURS AND COMPANY, priority 2013, dated 2017)

Columns and labels:
bluegrass = experiment: Test F preemergence; type: in vivo, Poa annua; details: 21 days, scale 0 to 100
Excerpt: (§1) Seeds of plant species selected from bermudagrass (Cynodon dactylon), surinam grass (Brachiaria decumbens), large (Lg) crabgrass (Digitaria sanguinalis), crabgrass, naked (naked crabgrass, Digitaria nuda), foxtail, green (green foxtail, Setaria viridis), johnsongrass (Sorghum halepense), kochia (Kochia scoparia), morningglory (pitted morningglory, Ipomoea lacunosa), nutsedge, purple (purple nutsedge, Cyperus rotundus), ragweed (common ragweed, Ambrosia elatior), mustard, black (black mustard, Brassica nigra), guineagrass (Panicum maximum), dallisgrass (Paspalum dilatatum), barnyardgrass (Echinochloa crus-galli), sandbur (southern sandbur, Cenchrus echinatus), sowthistle (common sowthistle, Sonchus oleraceous), Italian ryegrass (Lolium multiflorum), signalgrass (broadleaf signalgrass, Brachiaria platyphylla), dayflower (Virginia (VA) dayflower, Commelina virginica), bluegrass (annual bluegrass, Poa annua), quackgrass (Elytrigia repens), mallow (common mallow, Malva sylvestris), buckwheat, wild (wild buckwheat, Polygonum convolvulus), leafy spurge (Euphorbia esula), chickweed (common chickweed, Stellaria media), wild poinsettia (Euphorbia heterophylla), and pigweed (Amaranthus retroflexus) were planted into a blend of loam soil and sand and treated preemergence with test chemicals formulated in a non-phytotoxic solvent mixture which included a surfactant.
(§2) Treated plants and controls were maintained in a greenhouse for 21 days, after which time all species were compared to controls and visually evaluated. Plant response ratings, summarized in Table F, are based on a scale of 0 to 100 where 0 is no effect and 100 is complete control. A dash (-) response means no test result.

quackgrass = experiment: Test F preemergence; type: in vivo, Elytrigia repens; details: 21 days, scale 0 to 100
Excerpt: as §1, §2

[1] = system: morningglory (pitted morningglory); experiment: Test F preemergence; type: in vivo, Ipomoea lacunosa; details: 21 days, scale 0 to 100
Excerpt: as §1, §2

buckwheat, wild = experiment: Test F preemergence; type: in vivo, Polygonum convolvulus; details: 21 days, scale 0 to 100
Excerpt: as §1, §2

Italian ryegrass = experiment: Test F preemergence; type: in vivo, Lolium multiflorum; details: 21 days, scale 0 to 100
Excerpt: as §1, §2

wild mustard [2] = experiment: Test D preemergence; type: in vivo, Sinapis arvensis; details: Brassica, pre-emergence, scale 0-100, read-out: Plant response rating, Mustard, Wild
Excerpt: (§3) Seeds of plant species selected from bluegrass (annual bluegrass, Poa annua), blackgrass (Alopecurus myosuroides), canarygrass (littleseed canarygrass, Phalaris minor), chickweed (common chickweed, Stellaria media), galium (catchweed bedstraw, Galium aparine), bromegrass, downy (downy bromegrass, Bromus tectorum), field poppy (Papaver rhoeas), field violet (Viola arvensis), green foxtail (Setaria viridis), deadnettle (henbit deadnettle, Lamium amplexicaule), Italian ryegrass (Lolium multiflorum), kochia (Kochia scoparia), lambsquarters (Chenopodium album), oilseed rape (Brassica napus), pigweed (Amaranthus retroflexus), chamomile (scentless chamomile, Matricaria inodora), Russian thistle (Salsola kali), speedwell (bird's-eye speedwell, Veronica persica), spring barley (Hordeum vulgare), spring wheat (Triticum aestivum), wild buckwheat (Polygonum convolvulus), wild mustard (Sinapis arvensis), wild oat (Avena fatua), wild radish (Raphanus raphanistrum), windgrass (Apera spica-venti), winter barley (Hordeum vulgare), and winter wheat (Triticum aestivum) were planted into a silt loam soil and treated preemergence with test chemicals formulated in a non-phytotoxic solvent mixture which included a surfactant.
(§4) At the same time, these species were planted in pots containing Redi-Earth® planting medium (Scotts Company, 14111 Scottslawn Road, Marysville, Ohio 43041) comprising spaghnum peat moss, vermiculite, wetting agent and starter nutrients and treated with postemergence applications of the test chemicals formulated in the same manner. Plants ranged in height from 2 to 18 cm (1- to 4-leaf stage). Treated plants and controls were maintained in a controlled growth environment for 7 to 21 days after which time all species were compared to controls and visually evaluated. Plant response ratings, summarized in Table D, are based on a scale of 0 to 100 where 0 is no effect and 100 is complete control. A dash (-) response means no test result.

windgrass = experiment: Test D postemergence; type: in vivo, Apera spica-venti; details: Apera spica-venti, post-emergence, scale 0 to 100 (0 no effect, 100 complete control), read-out: Plant response rating, Windgrass
Excerpt: as §3, §4

blackgrass = experiment: Test D postemergence; type: in vivo, Alopecurus myosuroides; details: Alopecurus myosuroides, post-emergence, Postemergence, scale 0 to 100 (0 no effect, 100 complete control), read-out: Plant response rating, Blackgrass
Excerpt: as §3, §4

wild mustard [3] = experiment: Test D postemergence; type: in vivo, Sinapis arvensis; details: Brassica, post-emergence, scale 0 to 100 (0 no effect, 100 complete control), read-out: Plant response rating, Mustard, Wild
Excerpt: as §3, §4

spring wheat = experiment: Test D preemergence; type: in vivo, Triticum aestivum; details: Triticum aestivum, pre-emergence
Excerpt: as §3, §4

winter wheat = experiment: Test D preemergence; type: in vivo, Triticum aestivum; details: Triticum aestivum, pre-emergence
Excerpt: as §3, §4

N#Cc1cccc(Oc2ncc(Cl)cn2)c1-n1cc(OC(F)F)cn1 [Compound 97]
Plant response rating, Bluegrass (bluegrass; 16 g ai/ha): 5 | Plant response rating, Bluegrass (bluegrass; 31 g ai/ha): 35 | Plant response rating, Bluegrass (bluegrass; 62 g ai/ha): 75 | Plant response rating, Bluegrass (bluegrass; 125 g ai/ha): 98 | Plant response rating, Bluegrass (bluegrass; 250 g ai/ha): 100 | Plant response rating, Quackgrass (quackgrass; 16 g ai/ha): 0 | Plant response rating, Quackgrass (quackgrass; 31 g ai/ha): 35 | Plant response rating, Quackgrass (quackgrass; 62 g ai/ha): 50 | Plant response rating, Quackgrass (quackgrass; 125 g ai/ha): 95 | Plant response rating, Quackgrass (quackgrass; 250 g ai/ha): 100 | Plant response rating, Morningglory ([1]; 16 g ai/ha): 10 | Plant response rating, Morningglory ([1]; 31 g ai/ha): 60 | Plant response rating, Morningglory ([1]; 62 g ai/ha): 90 | Plant response rating, Morningglory ([1]; 125 g ai/ha): 98 | Plant response rating, Morningglory ([1]; 250 g ai/ha): 100 | Plant response rating, Buckwheat, Wild (buckwheat, wild; 16 g ai/ha): 85 | Plant response rating, Buckwheat, Wild (buckwheat, wild; 31 g ai/ha): 100 | Plant response rating, Buckwheat, Wild (buckwheat, wild; 62 g ai/ha): 100 | Plant response rating, Buckwheat, Wild (buckwheat, wild; 125 g ai/ha): 100 | Plant response rating, Buckwheat, Wild (buckwheat, wild; 250 g ai/ha): 100 | Plant response rating, Ryegrass, Italian (Italian ryegrass; 16 g ai/ha): 0 | Plant response rating, Ryegrass, Italian (Italian ryegrass; 31 g ai/ha): 35 | Plant response rating, Ryegrass, Italian (Italian ryegrass; 62 g ai/ha): 70 | Plant response rating, Ryegrass, Italian (Italian ryegrass; 125 g ai/ha): 85 | Plant response rating, Ryegrass, Italian (Italian ryegrass; 250 g ai/ha): 100

N#Cc1cccc(Oc2ncc(Cl)cn2)c1-n1cc(Br)cn1 [Compound 52, 2-(4-bromo-1H-pyrazol-1-yl)-3-[(5-chloro-2-pyrimidinyl)oxy]benzonitrile]
pest or weed control at 31 g/ha (wild mustard [2]; 31 g ai/ha): 20% | pest or weed control at 62 g/ha (wild mustard [2]; 62 g ai/ha): 55% | pest or weed control at 125 g/ha (wild mustard [2]; 125 g ai/ha): 90% | pest or weed control at 250 g/ha (wild mustard [2]; 250 g ai/ha): 100% | pest or weed control at 31 g/ha (windgrass; 31 g ai/ha): 15% | pest or weed control at 62 g/ha (windgrass; 62 g ai/ha): 20% | pest or weed control at 125 g/ha (windgrass; 125 g ai/ha): 25% | pest or weed control at 250 g/ha (windgrass; 250 g ai/ha): 40% | pest or weed control at 62 g/ha (blackgrass; 62 g ai/ha): 30% | pest or weed control at 31 g/ha (blackgrass; 31 g ai/ha): 30% | pest or weed control at 125 g/ha (blackgrass; 125 g ai/ha): 40% | pest or weed control at 250 g/ha (blackgrass; 250 g ai/ha): 65% | pest or weed control at 31 g/ha (wild mustard [3]; 31 g ai/ha): 70% | pest or weed control at 62 g/ha (wild mustard [3]; 62 g ai/ha): 80% | pest or weed control at 125 g/ha (wild mustard [3]; 125 g ai/ha): 95% | pest or weed control at 250 g/ha (wild mustard [3]; 250 g ai/ha): 100% | plant injury at 31 g/ha (spring wheat; 31 g ai/ha, scale 0 (no effect) to 100 (complete control), read-out: Plant response rating, Wheat, Spring): 0% | plant injury at 62 g/ha (spring wheat; 62 g ai/ha, scale 0-100, read-out: Plant response rating, Wheat, Spring): 0% | plant injury at 125 g/ha (spring wheat; 125 g ai/ha, scale 0-100, read-out: Plant response rating, Wheat, Spring): 0% | plant injury at 250 g/ha (spring wheat; 250 g ai/ha, scale 0-100, read-out: Plant response rating, Wheat, Spring): 30% | plant injury at 31 g/ha (winter wheat; 31 g ai/ha, scale 0 (no effect) to 100 (complete control), read-out: Plant response rating, Wheat, Winter): 0% | plant injury at 62 g/ha (winter wheat; 62 g ai/ha, scale 0-100, read-out: Plant response rating, Wheat, Winter): 0% | plant injury at 125 g/ha (winter wheat; 125 g ai/ha, scale 0-100, read-out: Plant response rating, Wheat, Winter): 25% | plant injury at 250 g/ha (winter wheat; 250 g ai/ha, scale 0-100, read-out: Plant response rating, Wheat, Winter): 35%

N#Cc1cccc(Oc2ncc(F)cn2)c1-n1cc(C(F)(F)F)cn1 [Compound 79, 3-[(5-fluoro-2-pyrimidinyl)oxy]-2-[4-(trifluoromethyl)-1H-pyrazol-1-yl]benzonitrile]
Plant response rating, Bluegrass (bluegrass; 16 g ai/ha): 50 | Plant response rating, Bluegrass (bluegrass; 31 g ai/ha): 75 | Plant response rating, Bluegrass (bluegrass; 62 g ai/ha): 98 | Plant response rating, Bluegrass (bluegrass; 125 g ai/ha): 100 | Plant response rating, Bluegrass (bluegrass; 250 g ai/ha): 100 | Plant response rating, Quackgrass (quackgrass; 16 g ai/ha): 40 | Plant response rating, Quackgrass (quackgrass; 31 g ai/ha): 70 | Plant response rating, Quackgrass (quackgrass; 62 g ai/ha): 95 | Plant response rating, Quackgrass (quackgrass; 125 g ai/ha): 98 | Plant response rating, Quackgrass (quackgrass; 250 g ai/ha): 100 | Plant response rating, Morningglory ([1]; 16 g ai/ha): 98 | Plant response rating, Morningglory ([1]; 31 g ai/ha): 100 | Plant response rating, Morningglory ([1]; 62 g ai/ha): 100 | Plant response rating, Morningglory ([1]; 125 g ai/ha): 100 | Plant response rating, Morningglory ([1]; 250 g ai/ha): 100 | Plant response rating, Buckwheat, Wild (buckwheat, wild; 16 g ai/ha): 98 | Plant response rating, Buckwheat, Wild (buckwheat, wild; 31 g ai/ha): 100 | Plant response rating, Buckwheat, Wild (buckwheat, wild; 62 g ai/ha): 100 | Plant response rating, Buckwheat, Wild (buckwheat, wild; 125 g ai/ha): 100 | Plant response rating, Buckwheat, Wild (buckwheat, wild; 250 g ai/ha): 100 | Plant response rating, Ryegrass, Italian (Italian ryegrass; 16 g ai/ha): 30 | Plant response rating, Ryegrass, Italian (Italian ryegrass; 31 g ai/ha): 75 | Plant response rating, Ryegrass, Italian (Italian ryegrass; 62 g ai/ha): 98 | Plant response rating, Ryegrass, Italian (Italian ryegrass; 125 g ai/ha): 100 | Plant response rating, Ryegrass, Italian (Italian ryegrass; 250 g ai/ha): 100
